Results as given in patent US10570149B2, “Tricyclic heterocylic derivatives” (MERCK PATENT GMBH, priority 2016, dated 2020).
Like-named read-outs stand apart in the source and are kept apart here.

Experiments:
[1] = tested on: phosphorylation of H2AX (gH2AX) in U2OS-TopBP1-ER cells; assay: gH2AX-TopBP1ER cellular assay; type: cell-based
Text: gH2AX-TopBP1ER Cellular Assay
ATR activity is restricted to replicating cells and many of its targets can also be phosphorylated by other PIKKs. These restrictions have limited the development of selective cellular assays in the past. In order to overcome these limitations, a previously developed genetically engineered cellular system in which ATR, and only ATR, can be activated at will in every cell (Toledo et al Genes Dev. 22, 297-302 2008) was used. In this system, the addition of 4-hydroxytamoxifen (4-OHT), promotes the nuclear translocation of a fragment of TopBP1 which then activates ATR. The phosphorylation of H2AX that follows 4-OHT addition in these cells is a direct and selective readout of ATR activity, which is not influenced by the rest of PIKKs. This property has been used in a screen for compounds with ATR inhibitory capacity. U2OS-TopBP1-ER cells stably express the TopBP1 activation domain (aa 978-1286) fused to a mutated estrogen receptor ligand binding domain. Nuclear accumulation of the TopBP1-ER-LBD fusion protein is induced by the synthetic ER antagonist 4-hydroxytamoxifen (4-OHT) (and not by natural ER agonists) mediating specific ATR activation that is independent of DNA damage or cell cycle. In the assay phosphorylation of the ATR substrate H2AX (“gH2AX”) at Serin 139 is detected using an immune-cytochemical procedure and high content imaging. For the assay U2OS-TopBP1-ER cells are plated in culture medium (DMEM high Glucose (no phenol red), 2 mM Glutamax, 1 mM Pyruvate, 10% FCS into Greiner 384 well plates, black, μclear #781090 (4000 cells/well/30 μl) and incubated for at least 20 hours at 37° C., 10% CO2 and 90% rH. Diluted test compounds (1 nM-30 μM final) and 4-OHT (1 μM final) are added simultaneously and cells are incubated for 2 h at 37° C. After fixation with 4% formaldehyde and permeabilisation with 0.2% Triton X-100 a complete immunocytochemical procedure is performed using a specific anti-gH2AX-antibody (Millipore 05-636, clone JBW301) and fluorescently labelled secondary antibody (Alexa Fluor® 488 goat anti-mouse F(ab′)2 fragment, Invitrogen A11017) and parallel nuclear staining for cell counting. The nuclear localised gH2AX signal is detected on an ImageXpress Ultra confocal high content reader and reported as % positive cells (nuclei).

ATR/ATRIP = target: T1, ATR/ATRIP (Homo sapiens, UniProt Q13535); assay: ATR/ATRIP kinase assay (TR-FRET, p53 phosphorylation); type: biochemical
T1 construct: human ATR, full length, GenBank ID: NM_001184.3; p53: Sf21 insect cells

[2] = tested on: phosphorylation of Chk1 (Ser 345) in HT29 colon adenocarcinoma cells; assay: pCHK1 cellular assay; type: cell-based; conditions: Homo sapiens
Text: Chk1 kinase acts downstream of ATR and has a key role in DNA damage checkpoint control. Activation of Chk1 involves phosphorylation of Ser317 and Ser345 (regarded as the preferential target for phosphorylation/activation by ATR) and occurs in response to blocked DNA replication and certain forms of genotoxic stress. Phosphorylation at Ser 345 serves to localize Chk1 to the nucleus following checkpoint activation.
This assay measures a decrease in phosphorylation of Chk1 (Ser 345) in HT29 colon adenocarcinoma cells following treatment with compound and hydroxyurea (which promotes fork stalling because of dNTP depletion) and using an immunocytochemical procedure and high content imaging.
For the assay HT29 cells are plated in culture medium (DMEM high Glucose (no phenol red), 2 mM Glutamax, 1 mM Pyruvate, 10% FCS into Greiner 384 well plates, black, μclear #781090 (2500 cells/well/30 μl) and incubated for at least 20 hours at 37° C., 10% CO2 and 90% rH. Diluted test compounds (1 nM-30 μM final) and hydroxyurea (3 mM final) are added simultaneously and cells are incubated for 4 h at 37° C. After fixation/prmeabilisation with 100% MeOH (−20° C. cold) and permeabilisation with 0.2% Triton X-100 a complete immunocytochemical procedure is performed using a specific anti-pChk1 antibody (Cell Signaling, #2348BF) and fluorescently labelled secondary antibody (Alexa Fluor® 488 goat anti-rabbit F(ab′)2 fragment, Invitrogen A11070) and parallel nuclear staining for cell counting.
The nuclear localised pChk1 signal is detected on an ImageXpress Ultra confocal high content reader and reported as % positive cells (nuclei).

[3] = Table 1, class symbols, read-out: ATR-ATRIP IC50
[4] = HT-29, Table 1, class symbols, hydroxyurea

T1 sequence (Q13535 whole entry): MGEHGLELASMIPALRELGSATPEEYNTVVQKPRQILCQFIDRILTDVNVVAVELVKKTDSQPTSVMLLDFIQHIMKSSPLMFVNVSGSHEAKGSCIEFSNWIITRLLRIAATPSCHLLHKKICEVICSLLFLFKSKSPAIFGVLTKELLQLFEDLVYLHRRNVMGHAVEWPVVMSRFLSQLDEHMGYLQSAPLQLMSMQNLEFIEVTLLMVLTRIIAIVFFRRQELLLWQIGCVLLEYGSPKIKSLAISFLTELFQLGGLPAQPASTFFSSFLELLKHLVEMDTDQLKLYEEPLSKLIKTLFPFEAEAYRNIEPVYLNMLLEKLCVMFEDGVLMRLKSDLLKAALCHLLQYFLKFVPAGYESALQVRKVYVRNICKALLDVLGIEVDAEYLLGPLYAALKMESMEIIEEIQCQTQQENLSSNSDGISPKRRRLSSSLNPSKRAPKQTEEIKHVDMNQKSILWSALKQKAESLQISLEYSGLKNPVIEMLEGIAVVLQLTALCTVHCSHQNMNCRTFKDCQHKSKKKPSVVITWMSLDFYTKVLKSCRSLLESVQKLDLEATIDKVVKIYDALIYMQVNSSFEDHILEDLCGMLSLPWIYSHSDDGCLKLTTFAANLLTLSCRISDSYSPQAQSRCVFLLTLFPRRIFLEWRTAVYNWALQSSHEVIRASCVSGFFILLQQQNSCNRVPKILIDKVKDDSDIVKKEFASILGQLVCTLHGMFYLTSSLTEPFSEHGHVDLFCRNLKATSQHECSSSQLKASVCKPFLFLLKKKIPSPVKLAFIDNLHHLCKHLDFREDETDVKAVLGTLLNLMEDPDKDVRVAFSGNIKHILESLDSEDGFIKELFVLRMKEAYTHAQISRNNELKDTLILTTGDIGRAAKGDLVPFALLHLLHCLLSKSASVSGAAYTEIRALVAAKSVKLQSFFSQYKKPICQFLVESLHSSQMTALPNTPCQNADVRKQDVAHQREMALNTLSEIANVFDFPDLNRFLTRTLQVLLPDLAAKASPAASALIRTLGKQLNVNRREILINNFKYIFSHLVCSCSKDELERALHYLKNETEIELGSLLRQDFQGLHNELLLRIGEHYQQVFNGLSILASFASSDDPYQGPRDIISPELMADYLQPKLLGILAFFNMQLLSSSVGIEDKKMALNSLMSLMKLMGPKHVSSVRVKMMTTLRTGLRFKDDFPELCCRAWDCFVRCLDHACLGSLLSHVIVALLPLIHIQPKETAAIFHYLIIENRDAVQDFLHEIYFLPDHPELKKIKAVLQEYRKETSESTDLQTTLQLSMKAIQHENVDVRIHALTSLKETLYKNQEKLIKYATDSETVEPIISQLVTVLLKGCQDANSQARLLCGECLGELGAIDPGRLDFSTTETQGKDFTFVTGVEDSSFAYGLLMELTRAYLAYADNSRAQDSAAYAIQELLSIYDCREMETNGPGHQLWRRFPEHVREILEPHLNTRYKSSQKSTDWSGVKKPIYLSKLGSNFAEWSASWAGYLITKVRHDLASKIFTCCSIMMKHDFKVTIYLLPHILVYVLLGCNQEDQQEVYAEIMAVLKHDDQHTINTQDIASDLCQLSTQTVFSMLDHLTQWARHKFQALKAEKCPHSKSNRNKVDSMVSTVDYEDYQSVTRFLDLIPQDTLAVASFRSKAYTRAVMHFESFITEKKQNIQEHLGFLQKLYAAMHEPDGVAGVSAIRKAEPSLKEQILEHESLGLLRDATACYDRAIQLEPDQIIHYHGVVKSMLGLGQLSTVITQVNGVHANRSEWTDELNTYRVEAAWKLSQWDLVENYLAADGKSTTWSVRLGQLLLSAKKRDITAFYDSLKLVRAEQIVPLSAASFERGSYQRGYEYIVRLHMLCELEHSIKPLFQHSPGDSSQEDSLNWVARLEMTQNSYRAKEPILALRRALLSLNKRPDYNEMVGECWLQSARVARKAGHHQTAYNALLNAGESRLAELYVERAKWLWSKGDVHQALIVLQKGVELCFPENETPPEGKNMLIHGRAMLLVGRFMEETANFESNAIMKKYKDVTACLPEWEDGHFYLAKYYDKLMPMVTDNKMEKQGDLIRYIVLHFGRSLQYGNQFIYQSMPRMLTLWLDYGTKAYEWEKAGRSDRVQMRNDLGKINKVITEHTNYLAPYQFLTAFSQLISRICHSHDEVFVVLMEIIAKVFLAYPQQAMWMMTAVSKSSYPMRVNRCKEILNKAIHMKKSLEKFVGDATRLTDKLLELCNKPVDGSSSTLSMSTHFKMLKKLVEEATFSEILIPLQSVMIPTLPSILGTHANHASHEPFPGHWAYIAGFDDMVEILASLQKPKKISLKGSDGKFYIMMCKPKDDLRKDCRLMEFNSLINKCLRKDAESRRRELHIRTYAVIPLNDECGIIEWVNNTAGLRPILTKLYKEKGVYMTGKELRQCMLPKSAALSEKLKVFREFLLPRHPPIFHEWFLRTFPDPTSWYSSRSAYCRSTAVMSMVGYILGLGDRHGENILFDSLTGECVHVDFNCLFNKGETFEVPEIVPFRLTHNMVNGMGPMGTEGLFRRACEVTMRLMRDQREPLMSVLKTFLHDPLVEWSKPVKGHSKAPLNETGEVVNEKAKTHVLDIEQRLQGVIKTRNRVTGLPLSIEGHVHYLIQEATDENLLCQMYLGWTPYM
T1 sequence (Q8WXE1 whole entry partner): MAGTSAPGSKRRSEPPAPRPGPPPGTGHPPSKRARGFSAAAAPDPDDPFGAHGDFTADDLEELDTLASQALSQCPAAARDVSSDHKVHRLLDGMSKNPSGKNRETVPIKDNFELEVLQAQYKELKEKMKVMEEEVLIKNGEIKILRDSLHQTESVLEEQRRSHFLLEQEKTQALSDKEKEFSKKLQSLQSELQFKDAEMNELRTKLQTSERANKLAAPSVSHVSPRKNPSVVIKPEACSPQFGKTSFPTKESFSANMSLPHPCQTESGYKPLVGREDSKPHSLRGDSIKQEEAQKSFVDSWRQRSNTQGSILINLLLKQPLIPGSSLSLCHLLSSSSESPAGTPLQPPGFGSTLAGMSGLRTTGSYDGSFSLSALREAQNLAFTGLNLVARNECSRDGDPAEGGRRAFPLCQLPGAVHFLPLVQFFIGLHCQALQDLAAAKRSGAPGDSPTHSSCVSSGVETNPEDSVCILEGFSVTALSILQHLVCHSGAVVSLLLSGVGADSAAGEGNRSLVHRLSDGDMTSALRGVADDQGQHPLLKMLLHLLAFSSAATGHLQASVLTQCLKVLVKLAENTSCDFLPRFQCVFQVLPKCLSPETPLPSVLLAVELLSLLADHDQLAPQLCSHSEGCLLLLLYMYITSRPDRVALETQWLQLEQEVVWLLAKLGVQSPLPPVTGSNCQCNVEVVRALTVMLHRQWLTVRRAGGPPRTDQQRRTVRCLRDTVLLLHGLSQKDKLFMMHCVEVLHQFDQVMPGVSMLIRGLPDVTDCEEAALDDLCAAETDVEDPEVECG

Row | SMILES | IC50 ([1]; Table 1, class symbols, 4-OHT) | IC50 (ATR/ATRIP; [3]) | IC50 [2, 4] | IC50 ([1]; Table 2, 4-OHT) | IC50 ([2]; HT-29, Table 2, hydroxyurea) | IC50 (ATR/ATRIP)
1 | C[C@@H]1COC[C@H]2COc3c(nc(-c4cccc(C5(CO)CN5)c4)nc3C(C)(C)S(C)(=O)=O)N21 (stereo partly drawn) [A63, (2-{3-[(5R,8aS)-1-(1-methanesulfonyl-1-methyl-ethyl)-5-methyl-5,6,8a,9-tetrahydro-8H-7,10-dioxa-2,4,4b-triaza-phenanthren-3-yl]-phenyl}-aziridin-2-yl)-methanol] |  |  | 1 to 30 µM |  |  | 0.5 to 30 µM
2 | C[C@@H]1COC[C@H]2COc3c(nc(N(C)c4ccn[nH]4)nc3C(C)(C)S(C)(=O)=O)N21 [A74, [(5R,8aS)-1-(1-methanesulfonyl-1-methylethyl)-5-methyl-5,6,8a,9-tetrahydro-8H-7,10-dioxa-2,4,4b-triaza-phenanthren-3-yl]-methyl-(2H-pyrazol-3-yl)-amine] |  | 0.01 to 0.1 µM | 0.01 to 0.1 µM |  |  | 
3 | C[C@@H]1COC[C@H]2COc3c(nc(-c4cccc(C5(N)COC5)c4)nc3C(C)(C)S(C)(=O)=O)N21 [A64, 3-{3-[(5R,8aS)-1-(1-methanesulfonyl-1-methyl-ethyl)-5-methyl-5,6,8a,9-tetrahydro-8H-7,10-dioxa-2,4,4b-triaza-phenanthren-3-yl]-phenyl}-oxetan-3-ylamine] |  | 0.5 to 30 µM | 1 to 30 µM |  |  | 
4 | C[C@@H]1COC[C@H]2COc3c(nc(Nc4cn[nH]n4)nc3C(C)(C)S(C)(=O)=O)N21 [A69, [(5R,8aS)-1-(1-methanesulfonyl-1-methyl-ethyl)-5-methyl-5,6,8a,9-tetrahydro-8H-7,10-dioxa-2,4,4b-triaza-phenanthren-3-yl]-(2H[1,2,3]triazol-4-yl)-amine] |  | 0.01 to 0.1 µM | 0.1 to 1 µM |  |  | 
5 | CNc1nc2ccccc2n1-c1nc2c(c(C(C)(C)S(C)(=O)=O)n1)OC[C@H]1COC[C@@H](C)N21 [A8, {1-[(5R,8aR)-1-(1-Methanesulfonyl-1-methyl-ethyl)-5-methyl-5,6,8a,9-tetrahydro-8H-7,10-dioxa-2,4,4b-triaza-phenanthren-3-yl]-1H-benzimidazol-2-yl}-methyl-amine] |  | 0.001 to 0.01 µM | 0.1 to 1 µM |  |  | 
6 | C[C@@H]1COC[C@H]2COc3c(nc(-c4cc5cc(F)ncc5[nH]4)nc3C(C)(C)S(C)(=O)=O)N21 [A67, (5R,8aS)-3-(5-fluoro-1H-pyrrolo[2,3-c]pyridin-2-yl)-1-(1-methanesulfonyl-1-methyl-ethyl)-5-methyl-5,6,8a,9-tetrahydro-8H-7,10-dioxa-2,4,4b-triaza-phenanthrene] |  | 0.01 to 0.1 µM | 1 to 30 µM |  |  | 
7 | CC(C)Nc1cnc2[nH]ccc2c1-c1nc2c(c(C(C)(C)S(C)(=O)=O)n1)OC[C@@H]1COC[C@@H](C)N21 [A81, isopropyl-{4-[(S)-1-(1-methanesulfonyl-1-methyl-ethyl)-5-(R)methyl-5,6,8a,9-tetrahydro-8H-7,10-dioxa-2,4,4b-triaza-phenanthren-3-yl]-1H-pyrrolo[2,3-b]pyridin-5-yl}-amine] |  | 0.001 to 0.01 µM | 0.1 to 1 µM |  |  | 

More lines, main results first:

Row | IC50 ([1]; Table 1, class symbols, 4-OHT) | IC50 (ATR/ATRIP; [3]) | IC50 [2, 4] | IC50 ([1]; Table 2, 4-OHT) | IC50 ([2]; HT-29, Table 2, hydroxyurea) | SMILES | IC50 (ATR/ATRIP)
8 | 0.1 to 1 µM | 0.001 to 0.01 µM | 0.1 to 1 µM |  |  | C[C@@H]1COC[C@H]2COc3c(nc(-c4c(F)cnc5[nH]ccc45)nc3C(C)(C)O)N21 [A7, 2-[(5R,8aS)-3-(5-Fluoro-1H-pyrrolo[2,3-b]pyridin-4-yl)-5-methyl-5,6,8a,9-tetrahydro-8H-7,10-dioxa-2,4,4b-triaza-phenanthren-1-yl]-propan-2-ol] | 
9 | < 0.01 µM | < 0.001 µM | < 0.01 µM | 0.0074 µM | 0.0029 µM | CNc1nc2ccccc2n1-c1nc2c(c(C(C)(C)S(C)(=O)=O)n1)OC[C@@H]1COC[C@@H](C)N21 [A15, {1-[(5R,8aS)-1-(1-Methanesulfonyl-1-methyl-ethyl)-5-methyl-5,6,8a,9-tetrahydro-8H-7,10-dioxa-2,4,4b-triaza-phenanthren-3-yl]-1H-benzimidazol-2-yl}-methyl-amine] | 
10 | 0.1 to 1 µM | < 0.001 µM | 0.01 to 0.1 µM |  |  | Cc1nc2ccccc2n1-c1nc2c(c(C(C)(C)S(C)(=O)=O)n1)OC[C@@H]1COC[C@@H](C)N21 [A24, (5R,8aS)-1-(1-Methanesulfonyl-1-methyl-ethyl)-5-methyl-3-(2-methylbenzimidazol-1-yl)-5,6,8a,9-tetrahydro-8H-7,10-dioxa-2,4,4b-triaza-phenanthrene] | 
11 |  | < 0.001 µM | 0.01 to 0.1 µM |  |  | CC(=O)Nc1nc2ccccc2n1-c1nc2c(c(C(C)(C)S(C)(=O)=O)n1)OC[C@@H]1COC[C@@H](C)N21 [A34, N-{1-[(10S,14R)-6-(2-Methanesulfonylpropan-2-yl)-14-methyl-8,12-dioxa-1,3,5-triazatricyclo[8.4.0.0^2,7]tetradeca-2,4,6-trien-4-yl]-1H-1,3-benzodiazol-2-yl}acetamide] | 
12 | 0.1 to 1 µM | 0.001 to 0.01 µM | 0.01 to 0.1 µM |  |  | CNc1cnc2[nH]ccc2c1-c1nc2c(c(C(C)(C)O)n1)OC[C@@H]1COC[C@@H](C)N21 [A23, 2-[(5R,8aS)-5-Methyl-3-(5-methylamino-1H-pyrrolo[2,3-b]pyridin-4-yl)-5,6,8a,9-tetrahydro-8H-7,10-dioxa-2,4,4b-triaza-phenanthren-1-yl]-propan-2-ol] | 
13 |  | < 0.001 µM | 0.1 to 1 µM |  |  | C[C@@H]1COC[C@H]2COc3c(nc(-c4ccc(-c5ncc[nH]5)cc4)nc3C(C)(C)S(C)(=O)=O)N21 [A44, (10S,14R)-4-[4-(1H-imidazol-2-yl)phenyl]-6-(2-methanesulfonylpropan-2-yl)-14-methyl-8,12-dioxa-1,3,5-triazatricyclo[8.4.0.0^2,7]tetradeca-2,4,6-triene] | 
14 |  | < 0.001 µM | 0.1 to 1 µM |  |  | C[C@@H]1COC[C@H]2COc3c(nc(-c4c(O)cnc5[nH]ccc45)nc3C3(S(C)(=O)=O)CC3)N21 [A91, 4-[(5R,8aS)-1-(1-methanesulfonyl-cyclopropyl)-5-methyl-5,6,8a,9-tetrahydro-8H-7,10-dioxa-2,4,4b-triaza-phenanthren-3-yl]-1H-pyrrolo[2,3-b]pyridin-5-ol] | 
15 |  | < 0.001 µM | 0.01 to 0.1 µM |  |  | C[C@@H]1COC[C@H]2COc3c(nc(-c4c(F)ncc5[nH]ccc45)nc3C(C)(C)S(C)(=O)=O)N21 [A29, (5R,8aS)-3-(5-Fluoro-1H-pyrrolo[2,3-c]pyridin-4-yl)-1-(1-methanesulfonyl-1-methyl-ethyl)-5-methyl-5,6,8a,9-tetrahydro-8H-7,10-dioxa-2,4,4b-triaza-phenanthrene] | 
16 |  | < 0.001 µM | 0.1 to 1 µM |  |  | C[C@@H]1COC[C@H]2COc3c(nc(-c4c(N)cnc5[nH]ccc45)nc3C3(S(C)(=O)=O)CC3)N21 [A37, 4-[(10S,14R)-6-(1-methanesulfonylcyclopropyl)-14-methyl-8,12-dioxa-1,3,5-triazatricyclo[8.4.0.0^2,7]tetradeca-2,4,6-trien-4-yl]-1H-pyrrolo[2,3-b]pyridin-5-amine] | 
17 |  | 0.001 to 0.01 µM | 0.01 to 0.1 µM |  |  | C[C@@H]1COC[C@H]2COc3c(nc(-n4c(NC5COC5)nc5ccccc54)nc3C(C)(C)S(C)(=O)=O)N21 [A93, {1-[(5R,8aS)-1-(1-methanesulfonyl-1-methyl-ethyl)-5-methyl-5,6,8a,9-tetrahydro-8H-7,10-dioxa-2,4,4b-triaza-phenanthren-3-yl]-1H-benzoimidazol-2-yl}-oxetan-3-yl-amine] | 
